Assay results reported in the NIST ThermoML archive (doi:10.1016/j.jct.2011.12.022).
Several values for one entry are separate records, joined by “and”; a condition that tells them apart may be missing. Identical values can stand only once. Numbers after ± are expanded uncertainties.

Assay: mn = molality of the nth substance listed, in mol/kg
Settings: 101 kPa, Liquid, Pycnometric method

CN(C)C(=N)NC(=N)N.Cl [N,N-dimethylimidodicarbonimidic diamide hydrochloride] + O
Settings	mass density
288.15 K, m1 = 0.0309	1000.34 ± 0.36 kg/m3
288.15 K, m1 = 0.0416	1000.77 ± 0.36 kg/m3
288.15 K, m1 = 0.0506	1001.17 ± 0.36 kg/m3
288.15 K, m1 = 0.0608	1001.55 ± 0.36 kg/m3
288.15 K, m1 = 0.0712	1001.9 ± 0.36 kg/m3
288.15 K, m1 = 0.0815	1002.31 ± 0.36 kg/m3
288.15 K, m1 = 0.0922	1002.71 ± 0.36 kg/m3
288.15 K, m1 = 0.1028	1003.21 ± 0.36 kg/m3
288.15 K, m1 = 0.1138	1003.39 ± 0.36 kg/m3
288.15 K, m1 = 0.1207	1003.71 ± 0.36 kg/m3
288.15 K, m1 = 0.1527	1004.89 ± 0.36 kg/m3
298.15 K, m1 = 0.029	998.2 ± 0.37 kg/m3
298.15 K, m1 = 0.0415	998.7 ± 0.38 kg/m3
298.15 K, m1 = 0.0508	999.07 ± 0.38 kg/m3
298.15 K, m1 = 0.0592	999.42 ± 0.38 kg/m3
298.15 K, m1 = 0.0725	999.91 ± 0.38 kg/m3
298.15 K, m1 = 0.0769	1000.1 ± 0.38 kg/m3
298.15 K, m1 = 0.0904	1000.51 ± 0.37 kg/m3
298.15 K, m1 = 0.1072	1001.13 ± 0.38 kg/m3
298.15 K, m1 = 0.1191	1001.63 ± 0.37 kg/m3 and 1001.57 ± 0.37 kg/m3
298.15 K, m1 = 0.1303	1002 ± 0.38 kg/m3
308.15 K, m1 = 0.0306	995.14 ± 0.42 kg/m3
308.15 K, m1 = 0.0404	995.53 ± 0.42 kg/m3
308.15 K, m1 = 0.0514	995.89 ± 0.42 kg/m3
308.15 K, m1 = 0.058	996.2 ± 0.42 kg/m3
308.15 K, m1 = 0.0704	996.6 ± 0.42 kg/m3
308.15 K, m1 = 0.0811	996.95 ± 0.42 kg/m3
308.15 K, m1 = 0.0915	997.53 ± 0.42 kg/m3
308.15 K, m1 = 0.1014	997.74 ± 0.42 kg/m3
308.15 K, m1 = 0.1218	998.62 ± 0.42 kg/m3
308.15 K, m1 = 0.152	999.56 ± 0.42 kg/m3

COc1cccc([C@@]2(O)CCCC[C@@H]2CN(C)C)c1.Cl [tramadol hydrochloride] + O
Settings	mass density [kg/m3]
288.15 K, m1 = 0.0138	999.75 ± 0.36
288.15 K, m1 = 0.026	1000.36 ± 0.36
288.15 K, m1 = 0.0298	1000.53 ± 0.36
288.15 K, m1 = 0.04	1001.04 ± 0.36
288.15 K, m1 = 0.0536	1001.72 ± 0.37
288.15 K, m1 = 0.0604	1002.03 ± 0.36
288.15 K, m1 = 0.0702	1002.51 ± 0.36
288.15 K, m1 = 0.0805	1002.96 ± 0.36
288.15 K, m1 = 0.0903	1003.44 ± 0.37
288.15 K, m1 = 0.099	1003.81 ± 0.37
288.15 K, m1 = 0.1207	1004.82 ± 0.37
288.15 K, m1 = 0.1511	1006.21 ± 0.37
298.15 K, m1 = 0.0114	997.56 ± 0.37
298.15 K, m1 = 0.0211	998.02 ± 0.38
298.15 K, m1 = 0.0296	998.42 ± 0.38
298.15 K, m1 = 0.0403	998.93 ± 0.38
298.15 K, m1 = 0.0501	999.29 ± 0.38
298.15 K, m1 = 0.0607	999.82 ± 0.38
298.15 K, m1 = 0.0804	1000.74 ± 0.38
298.15 K, m1 = 0.0923	1001.23 ± 0.38
298.15 K, m1 = 0.1016	1001.66 ± 0.38
298.15 K, m1 = 0.1183	1002.31 ± 0.38
298.15 K, m1 = 0.149	1003.78 ± 0.38
308.15 K, m1 = 0.0117	994.5 ± 0.42
308.15 K, m1 = 0.0195	994.81 ± 0.42
308.15 K, m1 = 0.0299	995.32 ± 0.42
308.15 K, m1 = 0.0399	995.75 ± 0.42
308.15 K, m1 = 0.0493	996.19 ± 0.42
308.15 K, m1 = 0.06	996.6 ± 0.42
308.15 K, m1 = 0.0717	997.13 ± 0.42
308.15 K, m1 = 0.082	997.64 ± 0.42
308.15 K, m1 = 0.0912	997.99 ± 0.42
308.15 K, m1 = 0.1	998.39 ± 0.42
308.15 K, m1 = 0.1181	999.15 ± 0.42
308.15 K, m1 = 0.1501	1000.52 ± 0.43

CNC(=C[N+](=O)[O-])NCCSCc1ccc(CN(C)C)o1.Cl [ranitidine hydrochloride] + O
Settings	mass density [kg/m3]
288.15 K, m1 = 0.0202	1000.92 ± 0.37
288.15 K, m1 = 0.0306	1001.78 ± 0.37
288.15 K, m1 = 0.0407	1002.69 ± 0.37
288.15 K, m1 = 0.0488	1003.32 ± 0.37
288.15 K, m1 = 0.0602	1004.33 ± 0.37
288.15 K, m1 = 0.0702	1005.27 ± 0.37
288.15 K, m1 = 0.0813	1006.23 ± 0.38
288.15 K, m1 = 0.092	1007.13 ± 0.38
288.15 K, m1 = 0.1019	1007.93 ± 0.38
288.15 K, m1 = 0.1149	1009.12 ± 0.38
288.15 K, m1 = 0.1521	1012.15 ± 0.38
298.15 K, m1 = 0.0103	997.99 ± 0.38
298.15 K, m1 = 0.0198	998.81 ± 0.38
298.15 K, m1 = 0.0295	999.58 ± 0.38
298.15 K, m1 = 0.0501	1001.38 ± 0.38
298.15 K, m1 = 0.0603	1002.17 ± 0.39
298.15 K, m1 = 0.0697	1002.94 ± 0.39
298.15 K, m1 = 0.0789	1003.7 ± 0.39
298.15 K, m1 = 0.0907	1004.69 ± 0.39
298.15 K, m1 = 0.0994	1005.38 ± 0.39
298.15 K, m1 = 0.1171	1006.83 ± 0.4
298.15 K, m1 = 0.1475	1009.32 ± 0.4
308.15 K, m1 = 0.0109	994.91 ± 0.42
308.15 K, m1 = 0.0191	995.59 ± 0.43
308.15 K, m1 = 0.0313	996.62 ± 0.43
308.15 K, m1 = 0.0428	997.58 ± 0.43
308.15 K, m1 = 0.0507	998.2 ± 0.43
308.15 K, m1 = 0.059	998.85 ± 0.43
308.15 K, m1 = 0.0695	999.78 ± 0.43
308.15 K, m1 = 0.0876	1001.15 ± 0.43
308.15 K, m1 = 0.0986	1002.15 ± 0.43
308.15 K, m1 = 0.119	1003.69 ± 0.43
308.15 K, m1 = 0.1483	1006.01 ± 0.44
